Laboratory results as given in patent US8541584B2, “3-(1,2,3-triazol-4-yl) pyrrolo [2,3-b] pyridine derivatives” (Merck Patent GmbH, priority 2009, dated 2013).
pIC50: −log10 of the molar value.

Tests used:
PDK1 = biological target: T1, PDK1 (Homo sapiens, UniProt O15530); test: Test for the inhibition of PDK1 (384-well flashplate, 33P-ATP); format: biochemical; conditions: His6-PDK1 3.4 nM, 4 μM ATP, 30° C., 60 min
T1 construct: His6 (N)
T1 sequence (O15530 51-556 limits assumed): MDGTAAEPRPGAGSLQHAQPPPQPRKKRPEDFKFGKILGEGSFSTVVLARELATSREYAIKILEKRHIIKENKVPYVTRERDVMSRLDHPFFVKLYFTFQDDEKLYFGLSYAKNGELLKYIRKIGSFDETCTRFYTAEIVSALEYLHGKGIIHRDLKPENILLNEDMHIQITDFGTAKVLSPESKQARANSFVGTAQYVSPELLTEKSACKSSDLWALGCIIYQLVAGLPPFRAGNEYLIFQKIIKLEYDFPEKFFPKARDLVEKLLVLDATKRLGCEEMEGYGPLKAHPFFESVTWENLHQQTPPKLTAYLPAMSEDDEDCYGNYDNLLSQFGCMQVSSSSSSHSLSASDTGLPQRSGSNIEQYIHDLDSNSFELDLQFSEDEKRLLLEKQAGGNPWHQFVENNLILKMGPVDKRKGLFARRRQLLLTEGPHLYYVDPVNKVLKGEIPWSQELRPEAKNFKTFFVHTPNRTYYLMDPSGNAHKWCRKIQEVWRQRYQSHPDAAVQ
Experimental: 4.0 Test for the Inhibition of PDK1
The experimental batches are carried out in a flashplate system with 384 wells/microtitration plate.
In each case, the PDK1 sample His6-PDK1(1-50)(3.4 nM), the PDK1 substrate biotin-bA-bA-[…] (400 nM), 4 μM ATP (with 0.2 μCi of ^33P-ATP/well) and the test substance in 50 μl of conventional experimental solution per well are incubated at 30° C. for 60 min. The test substances are employed in corresponding concentrations (if desired in a dilution series). The control is carried out without test substance. The reaction is stopped using standard methods and washed. The activity of the kinase is measured via the incorporated radioactivity in top count. In order to determine the non-specific kinase reaction (blank value), the experimental batches are carried out in the presence of 100 nM staurosporin.
The radioactivity (decompositions per minute) of the blank value (no use of test substance in the presence of staurosporin) is subtracted from all other radioactivity values. The controls (kinase activity without test substance) are set equal to 100 percent and all other radioactivity values (after subtracting the blank value) are expressed set in relation thereto (for example in % of the control).
IC50 values (50% inhibition) are determined with the aid of statistics programmes, such as, for example, RS1.

[1] = system: PDK1 kinase activity (P-T308-PKB) in PC3 cells; test: Cellular testing of PDK1 kinase inhibitors (Luminex assay, P-T308-PKB in PC3 cells); format: cell-based; conditions: Homo sapiens, PC-3, 0.5 h, serum-free, 30 min with test substance
Experimental: Description of the Method for Cellular Testing of PDK1 Kinase Inhibitors
The cellular assay for determination of the PDK1 kinase activity is performed as Luminex assay in the 96-well format. PC3 cells are sown at 20,000 cells per well in 100 μl of medium (45% of […]/45% of Ham's F12/10% of FCS) and incubated under serum-free conditions on the following day for 30 min with serial dilution of the test substance (7 concentrations). The cells are subsequently lysed using 90 μl of lysis buffer (20 mM Tris/HCl pH 8.0, 150 mM NaCl, 1% of NP40, 10% of glycerol, 1% of phosphatase inhibitor I, 1% of phosphatase inhibitor II, 0.1% of protease inhibitor Cocktail III, 0.01% of benzonase) per well, and the lysates are separated off from insoluble cell constituents by means of centrifugation through a 96-well filter plate (0.65 μm). The lysates are incubated overnight at 4° C. with shaking with Luminex beads to which an anti-total PKB antibody has been coupled. Detection is carried out on the following day by addition of a P-T308-PKB antibody and a species-specific PE-labelled secondary antibody. The determination of P-T308-PKB is carried out by measurement in the Luminex100 instrument by determination of 100 events per cavity in a measurement time of 60 sec. As pharmacological blank, the signals obtained from cells which have been treated with 10 μM staurosporin are subtracted from all other batches. The control value used for maximum phosphorylation of PKB on T308 are the signals from cells which have been treated only with the solvent (0.3% of DMSO). The values of the batches treated with test substance are calculated from this as percent of control, and IC50 values are determined by means of RS1.

[2] = biological target: T2, TANK binding kinase (TBK1) (Homo sapiens, UniProt Q9UHD2); test: TBK1 kinase test (384-well flashplate); format: biochemical; conditions: 0.6 nM TBK1, 10 μM ATP, 30° C., 120 min
T2 sequence (Q9UHD2 1-729): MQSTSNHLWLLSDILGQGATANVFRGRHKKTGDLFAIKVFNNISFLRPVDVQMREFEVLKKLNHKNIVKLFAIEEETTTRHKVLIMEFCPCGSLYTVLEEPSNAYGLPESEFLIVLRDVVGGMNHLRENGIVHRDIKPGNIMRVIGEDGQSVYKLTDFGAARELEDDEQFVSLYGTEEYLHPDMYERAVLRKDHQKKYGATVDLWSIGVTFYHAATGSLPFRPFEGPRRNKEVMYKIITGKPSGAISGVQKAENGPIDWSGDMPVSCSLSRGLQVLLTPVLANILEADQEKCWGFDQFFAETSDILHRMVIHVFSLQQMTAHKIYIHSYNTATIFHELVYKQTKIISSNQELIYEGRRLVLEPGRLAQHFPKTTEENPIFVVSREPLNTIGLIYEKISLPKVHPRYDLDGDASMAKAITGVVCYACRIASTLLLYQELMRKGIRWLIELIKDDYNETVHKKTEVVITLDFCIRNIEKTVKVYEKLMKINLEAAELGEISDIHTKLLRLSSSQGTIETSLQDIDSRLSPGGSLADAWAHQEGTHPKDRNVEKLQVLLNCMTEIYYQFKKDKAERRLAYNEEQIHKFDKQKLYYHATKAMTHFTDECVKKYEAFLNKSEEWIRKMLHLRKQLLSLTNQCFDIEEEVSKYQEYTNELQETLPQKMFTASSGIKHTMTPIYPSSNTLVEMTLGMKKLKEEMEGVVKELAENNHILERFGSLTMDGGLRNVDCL
Experimental: The kinase assay is performed as 384-well flashplate assay. 0.6 nM TANK binding kinase (TBK1), 800 nM biotinylated MELK-derived peptide (biotin-Ah-Ah-[…]) and 10 μM ATP (with 0.25 μCi of ^33P-ATP/well) are incubated in a total volume of 50 μl (10 mM MOPS, 10 mM magnesium acetate, 0.1 mM EGTA, 1 mM DTT, 0.02% of Brij35, 0.1% of BSA, pH 7.5) with or without test substance at 30° C. for 120 min. The reaction is stopped using 25 μl of 200 mM EDTA solution, filtered off with suction after 30 min at room temperature, and the wells are washed 3 times with 100 μl of 0.9% NaCl solution. The non-specific proportion of the kinase reaction (blank) is determined using 100 nM staurosporine. Radioactivity is measured in the Topcount. IC50 values are calculated using RS1.

Row | pIC50 (PDK1) | pIC50 [1] | pIC50 [2] | SMILES
1 | 6.00 to 9.30 | 5.00 to 6.00 | 6.00 to 9.30 | Cc1cccc(Cn2cc(-c3c[nH]c4ncc(-c5cnn(C)c5)cc34)nn2)c1 [Compound A7, 3-[1-(3-Methylbenzyl)-1H-1,2,3-triazol-4-yl]-5-(1-methyl-1H-pyrazol-4-yl)-1H-pyrrolo[2,3-b]pyridine]
2 | 6.00 to 9.30 | 6.00 to 9.30 | 6.00 to 9.30 | Cn1cc(-c2cnc3[nH]cc(-c4cn(Cc5ccccc5F)nn4)c3c2)cn1 [Compound A17, 3-[1-(2-Fluorobenzyl)-1H-1,2,3-triazol-4-yl]-5-(1-methyl-1H-pyrazol-4-yl)-1H-pyrrolo-[2,3-b]pyridine]
3 | 6.00 to 9.30 | 6.00 to 9.30 | 6.00 to 9.30 | Cn1cc(-c2cnc3[nH]cc(-c4cn(Cc5cccc(F)c5F)nn4)c3c2)cn1 [Compound A25, 3-[1-(2,3-Difluorobenzyl)-1H-1,2,3-triazol-4-yl]-5-(1-methyl-1H-pyrazol-4-yl)-1H-pyrrolo-[2,3-b]pyridine]

The next lines start with the compound.

Row | SMILES | pIC50 (PDK1) | pIC50 [1] | pIC50 [2]
4 | Cn1cc(-c2cnc3[nH]cc(-c4cn(Cc5ccncc5)nn4)c3c2)cn1 [Compound A9, 5-(1-Methyl-1H-pyrazol-4-yl)-3-(1-pyridin-4-ylmethyl-1H-1,2,3-triazol-4-yl)-1H-pyrrolo-[2,3-b]pyridine] | 6.00 to 9.30 | 5.00 to 6.00 | 6.00 to 9.30
5 | CC(c1ccccc1C(F)(F)F)n1cc(-c2c[nH]c3ncc(-c4cnn(C)c4)cc23)nn1 (stereo not drawn) [Compound A20, 5-(1-Methyl-1H-pyrazol-4-yl)-3-{1-[1-(2-trifluoromethylphenyl)ethyl]-1H-1,2,3-triazol-4-yl}-1H-pyrrolo[2,3-b]pyridine] | 6.00 to 9.30 | 5.00 to 6.00 | 6.00 to 9.30
6 | Cn1cc(-c2cnc3[nH]cc(-c4cn(Cc5ccc6ncccc6c5)nn4)c3c2)cn1 [Compound A29, 6-{4-[5-(1-Methyl-1H-pyrazol-4-yl)-1H-pyrrolo[2,3-b]pyridin-3-yl]-1,2,3-triazol-1-ylmethyl}quinoline] | 6.00 to 9.30 | 5.00 to 6.00 | 6.00 to 9.30
